Publication PMC3487895, “Artepillin C, a Major Ingredient of Brazilian Propolis, Induces a Pungent Taste by Activating TRPA1 Channels” (PLoS ONE, 2012)

Key:
[1] = biological target: T1, human transient receptor potential ankyrin 1 (hTRPA1) (Homo sapiens, UniProt O75762); assay: calcium influx (FLIPR Calcium […] plate reader and Fura-2 imaging) in hTRPA1-expressing Flp-In […] cells; blocked by HC-030031; type: cell-based
T1 construct: gene TRPA1; entire coding region (NM_007332.2)

[2] = biological target: T1, human transient receptor potential ankyrin 1 (hTRPA1); assay: calcium influx (FLIPR Calcium […] plate reader and Fura-2 imaging) in hTRPA1-expressing Flp-In […] cells; blocked by HC-030031, absent in parental cells; type: cell-based

T1 sequence (O75762 whole entry): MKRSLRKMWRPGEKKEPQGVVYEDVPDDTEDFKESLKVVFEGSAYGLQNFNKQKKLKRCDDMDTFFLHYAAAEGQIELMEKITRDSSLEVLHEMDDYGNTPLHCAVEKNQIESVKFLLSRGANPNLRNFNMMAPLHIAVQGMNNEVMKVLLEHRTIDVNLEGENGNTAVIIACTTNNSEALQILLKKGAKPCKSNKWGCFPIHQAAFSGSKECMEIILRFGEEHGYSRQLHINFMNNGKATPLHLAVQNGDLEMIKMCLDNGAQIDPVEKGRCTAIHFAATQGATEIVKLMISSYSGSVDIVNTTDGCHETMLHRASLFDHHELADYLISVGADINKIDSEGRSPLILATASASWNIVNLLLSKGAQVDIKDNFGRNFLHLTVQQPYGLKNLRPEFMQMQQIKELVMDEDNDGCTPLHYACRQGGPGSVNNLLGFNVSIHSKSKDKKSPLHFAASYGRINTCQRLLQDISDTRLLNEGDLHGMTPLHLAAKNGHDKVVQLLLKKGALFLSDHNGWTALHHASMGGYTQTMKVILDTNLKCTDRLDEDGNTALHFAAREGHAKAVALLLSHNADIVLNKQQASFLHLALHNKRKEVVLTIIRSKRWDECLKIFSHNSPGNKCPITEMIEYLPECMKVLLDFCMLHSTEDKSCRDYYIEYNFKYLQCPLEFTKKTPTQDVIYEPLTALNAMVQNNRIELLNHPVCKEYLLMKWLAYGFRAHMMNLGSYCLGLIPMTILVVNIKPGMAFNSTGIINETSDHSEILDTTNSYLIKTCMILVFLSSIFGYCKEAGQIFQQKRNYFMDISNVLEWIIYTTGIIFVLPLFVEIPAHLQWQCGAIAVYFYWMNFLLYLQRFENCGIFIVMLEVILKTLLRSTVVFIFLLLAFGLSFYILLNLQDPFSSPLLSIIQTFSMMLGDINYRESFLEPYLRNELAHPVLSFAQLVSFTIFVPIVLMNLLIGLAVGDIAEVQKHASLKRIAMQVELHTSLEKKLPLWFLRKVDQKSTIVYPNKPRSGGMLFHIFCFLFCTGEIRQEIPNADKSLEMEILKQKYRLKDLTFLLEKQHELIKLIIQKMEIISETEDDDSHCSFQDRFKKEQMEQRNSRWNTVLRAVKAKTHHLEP

EC50 [1] [µM]	EC50 [2] [µM]	Compound
15.5		CC(C)=CCc1cc(/C=C/C(=O)O)ccc1OC(=O)CCc1ccccc1 [baccharin, (E)-3-prenyl-4-(2,3-dihydrocinnamoyloxy) cinnamic acid]
	1.8	CC(C)=CCc1cc(/C=C/C(=O)O)cc(CC=C(C)C)c1O [artepillin C, 3,5-diprenyl-4-hydroxycinnamic acid]
